Our source for the MIC values is patent US4369312A, “Method of producing oxo-containing azetidinone compounds” (Fujisawa Pharmaceutical Co., Ltd., priority 1980, dated 1983).

In brackets after ≈: the same amount, converted by molar mass. Read-outs that look alike come from different tables or passages of the source.

Common to all, as to assay: In vitro antimicrobial activity, two-fold agar-plate dilution method (MIC)
Common to all, as to type: cell-based

Test [1] concerns Staphylococcus aureus 209P JC-1. The note with it: HI-agar, 37° C., 20 hours. The protocol: (§1) In vitro Antimicrobial activity was determined by the two-fold agar-plate dilution method as described below.
(§2) One loopful of an overnight culture of each test strain in Tripticase-soy broth (approximately 10^8 viable cells per ml) was streaked on heart infusion agar (HI-agar) containing graded concentrations of antimicrobial agents, and the minimal inhibitory concentration (MIC) was expressed in term of μg/ml after incubation at 37° C. for 20 hours.

The subject of test [2] is Bacillus subtilis ATCC 6633. The note with it: 37° C., 20 hours. The protocol: as §1, §2
Test [3] deals with Escherichia coli 31. The note with it: HI-agar, 37° C., 20 hours. The protocol:
as §1, §2

Setting [4] is: ATCC6633, HI-agar, read-out: MIC.

As for `CC(=O)OCC1=C(C(=O)OC(c2ccccc2)c2ccccc2)N2C(=O)C(=O)C2SC1` (stereo not drawn) [Example 2(3), benzhydryl 7-oxocephalosporanate], the MIC in test [1] came out at 3.13 µg/mL (≈ 7.15 µM); in test [2] (HI-agar) it was 0.78 µg/mL (≈ 1.78 µM); in test [3], 1.56 µg/mL (≈ 3.57 µM).
In the case of `CON(C(=O)Cc1cccs1)[C@@H]1C(=O)N2C(C(=O)O)=C(COC(C)=O)CS[C@H]12` [Test compound 1, Sodium 7-[N-methoxy-2-(2-thienyl)acetamido]cephalosporanate], the MIC amounted to 6.25 µg/mL in test [1] (read-out: MIC), 0.78 µg/mL in test [2] (setting [4]) and 6.25 µg/mL in test [3] (read-out: MIC).
In the case of `Cn1nnnc1SCC1=C(C(=O)O)N2C(=O)[C@@H](N(O)C(=O)Cc3cccs3)[C@H]2SC1` [Test compound 3, 7-[N-Hydroxy-2-(2-thienyl)acetamido]-3-(1-methyl-1H-tetrazol-5-ylthiomethyl)-3-cephem-4-carboxylic acid], the MIC was 6.25 µg/mL (≈ 13.3 µM) in test [1] (read-out: MIC), 3.13 µg/mL (≈ 6.68 µM) in test [2] (setting [4]) and 6.25 µg/mL (≈ 13.3 µM) in test [3] (read-out: MIC).

For orientation: MIC means the lowest concentration that inhibits growth of the organism.
